Patent US20150050299A1, “METHODS FOR ENHANCING IMMUNE RESPONSE” (priority 2010, published 2015)
Like-named read-outs stand apart in the source and are kept apart here.

What was measured:
L1210 cells = conditions: i.p. 5 mg/kg for 9 days; cited from earlier work
[1] = test system: squamous cell carcinomas (SCCs); assay type: in vivo; conditions: agent alone
Procedure: The combination therapy of polyamine biosynthesis/uptake inhibition was tested against the K6/ODC transgenic mouse murine squamous cell carcinoma (SCC) model recently described.^98 The K6/ODC model was developed to assess whether ODC overexpression was a contributing cause, or an effect of malignant transformation. […] While most skin tumorigenesis models yielded benign squamous papillomas as the predominant tumor type, when the K6/ODC transgene was expressed on the FVB/N strain background, the majority of tumors that developed were aggressive squamous cell carcinomas. These SCCs appeared as early as 5 weeks after treatment and in high multiplicities (up to four tumors per mouse), making this a very efficient model for SCC induction. Using this model, we were thus able to conclude that over-expression of ODC is a sufficient condition for tumor promotion in mouse skin.^99
We conducted an in vivo anti-tumor trial of DFMO combined with either the D-C16-acyl Lys-spm conjugate AMXT 1501 (FIG. 4) or the L-C16-alkyl AMXT 1569 analog (FIG. 5) in the K6/ODC SCC model.
The concentration of AMXT 1501 was 14 μg/ml, or an average daily dose of ˜50-65 μg (equivalent to ˜3 mg/kg/d). […] It is expected that great improvements in the oral bioavailability of AMXT 1501 would result from insightful drug formulation.

UVB-induced skin cancer = conditions: 1% in drinking water for 3 weeks before UVB; untreated control 38%; cited from earlier work
[2] = test system: UV-induced tumor challenges; conditions: splenocytes from UV-irradiated treated mice; without treatment 20 of 24; cited from earlier work
B16F1 cells = conditions: 0.5 to 2.0% oral; cited from earlier work
iNOS protein translation [3] = conditions: read-out: IC50, iNOS protein translation; RAW 264.7 cells; cited from earlier work
iNOS protein translation [4] = conditions: read-out: IC50, iNOS protein translation; peritoneal macrophages; cited from earlier work
4T1 breast cancer cells = conditions: mouse, in vivo; cited from earlier work
L1210 leukemia = conditions: cited from earlier work

**Q.** For `NCCCNCCCCNC(=O)[C@H](O)NC(=O)C[C@@H](O)CCCCN=C(N)N` [sperqualin], which survival (L1210 cells) is on record?
**A.** more than 60 days

**Q.** Which results are given for `NCCC[C@](N)(C(=O)O)C(F)F` [DFMO, α-difluoromethylornithine]?
**A.** anti-tumor response to single agent [1]: weak effect; occurrence of skin cancer (UVB-induced skin cancer): 9%; recipient mice in which tumors grew [2]: 2 of 24; macrophage mediated cytolysis of B16F1 cells (B16F1 cells): two-fold augmented

**Q.** What does the source list for `NCCCNCCCCNCCCN` [spermine]?
**A.** IC50 (iNOS protein translation [3]): 9.2 µM; IC50 (iNOS protein translation [4]): 9 µM

**Q.** For `c1cc(CN2CCCNCCNCCCNCC2)ccc1CN1CCCNCCNCCCNCC1` [AMD3100, plerixafor], which “growth of transplanted 4T1 cells” value (4T1 breast cancer cells) is on record?
**A.** significantly reduced

**Q.** With `CCNCCCNCCCCCCCNCCCNCC` [BEPH, N,N′-bis[3-(ethylamino)-propyl]-1-7-heptane diamine] as the molecule, how does the “outcome of L1210 leukemia” value (L1210 leukemia; T-cell deficient nude mice) read?
**A.** not curative

**Q.** And the “effect on tumor or spleen cell polyamine levels” value (L1210 leukemia; at the doses used)?
**A.** no effect

**Q.** And the “outcome of L1210 leukemia” value (L1210 leukemia; immunocompetent C57BL mice)?
**A.** cured
